Assay results as given in patent publication US8273758B2, “Substituted tricyclic derivatives” (Sanofi, priority 2008, dated 2012).

Experiments:
GSK3β = GSK3β (Homo sapiens, UniProt P49841); assay: Inhibitory activity against GSK3β (33P-ATP phosphorylation of prephosphorylated GS1 peptide); assay type: biochemical; conditions: protocol 3: 7.5 μM GS1 peptide, 10 μM ATP, 50 mM Hepes pH 7.2, one hour, room temperature
Protocol: Four different protocols can be used.
In a first protocol: 7.5 μM of prephosphorylated GS1 peptide and 10 μM ATP (containing 300,000 cpm of ^33P-ATP) were incubated in 25 mM Tris-HCl, pH 7.5, 0.6 mM DTT, 6 mM MgCl2, 0.6 mM EGTA, 0.05 mg/ml BSA buffer for 1 hour at room temperature in the presence of GSK3beta (total reaction volume: 100 microliters).
In a second protocol: 4.1 μM of prephosphorylated GS1 peptide and 42 μM ATP (containing 260,000 cpm ^33P-ATP) were incubated in 80 mM Mes-NaOH, pH 6.5, 1 mM Mg acetate, 0.5 mM EGTA, 5 mM 2-mercaptoethanol, 0.02% Tween 20, 10% glycerol buffer for 2 hours at room temperature in the presence of GSK3beta.
In a third protocol: 7.5 μM of prephosphorylated GS1 peptide and 10 μM ATP (containing 300,000 cpm of ^33P-ATP) were incubated in 50 mM Hepes, pH 7.2, 1 mM DTT, 1 mM MgCl2, 1 mM EGTA, 0.01% Tween 20 buffer for one hour at room temperature in the presence of GSK3beta (total reaction volume: 100 microliters). […]
The reaction was stopped with 100 microliters of a solution made of 25 g polyphosphoric acid (85% P2O5), 126 ml 85% H3PO4, H2O to 500 ml and then diluted to 1:100 before use. […] Incorporated ^33P radioactivity was determined by liquid scintillation spectrometry. […]

Sequence of GSK3β (P49841 whole entry): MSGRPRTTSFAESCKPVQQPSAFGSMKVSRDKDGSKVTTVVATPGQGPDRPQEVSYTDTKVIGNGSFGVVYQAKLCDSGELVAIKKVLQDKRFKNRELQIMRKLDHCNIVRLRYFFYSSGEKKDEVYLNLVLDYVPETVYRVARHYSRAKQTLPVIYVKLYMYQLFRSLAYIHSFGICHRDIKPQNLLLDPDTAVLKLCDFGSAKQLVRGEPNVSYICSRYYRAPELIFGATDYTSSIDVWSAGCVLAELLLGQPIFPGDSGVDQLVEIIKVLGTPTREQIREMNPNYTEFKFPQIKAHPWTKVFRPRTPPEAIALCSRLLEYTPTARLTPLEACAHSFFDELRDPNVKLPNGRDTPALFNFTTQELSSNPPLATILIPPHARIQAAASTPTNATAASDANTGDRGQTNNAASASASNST

Structure (SMILES): O=C(CN1c2ccccc2Cn2c1nc(-c1ccncn1)cc2=O)c1ccccc1 [Compound No. 3, 9-(2-Oxo-2-phenyl-ethyl)-2-pyrimidin-4-yl-9,10-dihydro-1,4a,9-triaza-anthracen-4-one]
- IC50 (GSK3β): 6 nM
- melting point: 263 to 265 °C
